# Data as given in PMC9981747, “A covalent BTK ternary complex compatible with targeted protein degradation” (Nature Communications, 2023).
# Values joined by “and” are separate entries in the source; they are usually repeats but may differ in a detail not shown here. Equal values may be shown once.
# Columns and labels:
# Assay type in all cases: cell-based
# [1] = target: T1, BTK^FL (Homo sapiens, UniProt Q06187+Q13490); assay: Tetracycline-inducible (T-REx) cIAP1^FL degradation of pre-formed BTK^FL~BCCov in Expi293; conditions: pre-formed BTK^FL~BCCov (20 µM, 18 h), then tetracycline induction of cIAP1^FL
# T1 construct: we used a full-length BTK (aa1-659) with a C terminal Tobacco Etch Virus protease (TEV) site; expressed in transfected cells; host or cells: Expi293 (HEK293)
# Method: For assays involving inducible cIAP1 expression, 18 h after compound treatment cells were treated with a final concentration of 1.0 µg/mL tetracycline (Teknova Cat. #T3325) and shaken for another 18 h. These samples were processed for western blotting as detailed above. Washout condition consisted of 4 × 10 mL PBS resuspension, centrifugation, and removal repeated for four cycles before resuspension in cellular media.
# [2] = target: T2, BTK^T474I-C481S (Homo sapiens, UniProt Q06187+Q13490, C481S/T474I); assay: Expi293 dose-dependent degradation of BTK double mutant; conditions: Expi293 with cIAP1^FL
# T2 construct: we used a full-length BTK (aa1-659) with a C terminal Tobacco Etch Virus protease (TEV) site; expressed in transfected cells; host or cells: Expi293 (HEK293)
# Method: (§1) Gibco Expi293 cell line Transfection Kit (Cat.# A14524) was cultured according to the manufacturers conditions. Cells were grown at 37 °C with 5% CO2 to 4 × 10^6 cells/mL using an orbital shaker set to 95 RPM. Next cells were split to 2 × 10^6 cells/mL and transfected with plasmid DNA at a 1 µg/mL final concentration in Optimem (Gibco 31985070) using the Expifectamine 293 transfection reagent according to manufacturer’s conditions. After approximately 18 h, enhancers 1 and 2 (provided with kit). Viability was typically about 85%. When cIAP1^FL was transfected, it was detected via α-cIAP1 antibody there was typically some autoubiquitination detected, and thus often appeared as a laddered or smeared band via western blotting. When BTK^FL variants were transfected, they were detected using anti-BTK antibody (D3H5).
# For dose-dependent degradation assays, cells were plated in a 24-well format and placed on a separate orbital shaker set to 115 RPM. […] Clarified lysate was harvested and quantified using a Pierce BCA Assay Kit (Cat. #23225), and 20 µg of the sample was loaded into a 4–15% Criterion TGX gel (Bio-Rad, 5678085) and transferred to a nitrocellulose membrane (Life Technologies Cat. #IB23001) using an iBlot 2 (Life Technologies Cat. #IB21001). Proteins were detected using an iBind system (Life Technologies SLF2020). […]
# [3] = target: T3, BTK^FL-C481S (Homo sapiens, UniProt Q06187, C481S); assay: Covalent modification of BTK^FL-C481S in Expi293 cells, intact mass spectrometry; conditions: 20 µM
# T3 construct: we used a full-length BTK (aa1-659) with a C terminal Tobacco Etch Virus protease (TEV) site; expressed in transfected cells; host or cells: Expi293 (HEK293)
# Method: For covalent modification detection assays, the compound was added to Expi293 cells after enhancer treatment. At each timepoint 10 mL of cells were harvested, rapidly cooled to 4 °C in an ice bath, and centrifuged at 100 x g at 4 °C for 5 min. The pellet was washed twice with ice-cold PBS, snap-frozen in liquid nitrogen, and stored at −80 °C. Each pellet was resuspended in 0.1 mL ice-cold RIPA Buffer supplemented with 40 µM BCNC (to outcompete any remaining BCCov), protease inhibitor, and benzonase, and sonicated with 10 brief blasts at power 20. Lysate was centrifuged at 15 K x g for 20 min at 4 °C and prepared for western blotting as detailed above. When samples were evaluated for covalent adduct formation, a purification step was required. Briefly, the ~1 mL of clarified lysate was added to 9 mL of FLAG binding buffer (25 mM HEPES 7.5, 300 mM NaCl, 10% glycerol). […]
# Each sample was analyzed using intact mass spectrometry under denaturing conditions using an Agilent 6530 QToF Mass Spectrometer coupled with an Agilent Infinity 1290 UPLC chromatography system. Spectra were analyzed using ChemLaunch v1.6.8 (Healex Systems), Mass Hunter V7.0 (Agilent Technologies), and BioConfirm v8.0 (Agilent Technologies). For all proteins analyzed, approximately 2 μl of 0.1–0.4 mg/ml protein sample was added to 8 μl 0.2% trifluoroacetic acid (TFA) (Sigma T6508–100 mL). […]
# [4] = target: T4, BTK^FL-F559A (Homo sapiens, UniProt Q06187+Q13490, F559A); assay: Expi293 dose-dependent degradation of BTK^FL-F559A; conditions: for BTK^FL-F559A blot signal normalized to DMSO: replicates
# T4 construct: we used a full-length BTK (aa1-659) with a C terminal Tobacco Etch Virus protease (TEV) site; expressed in transfected cells; host or cells: Expi293 (HEK293)
# Method: as §1
# For dose-dependent degradation assays, cells were plated in a 24-well format and placed on a separate orbital shaker set to 115 RPM. Each well was treated with prescribed compound concentrations in the same manner as with THP-1 cells, with the exception of using Expifectamine 293 growth medium in place of RPMI 1640 complete media. After approximately 18 h post-treatment cells were harvested, centrifuged at 100 x g at 4 °C, washed twice with ice-cold PBS, and resuspended in RIPA buffer supplemented with a Roche protease inhibitor cocktail (Cat. #11873580001), and benzonase nuclease (Millipore-Sigma Cat# 70664). Each sample was incubated on ice for 30 min with periodic vortexing and centrifuged at 15 Kxg for 20 min. Clarified lysate was harvested and quantified using a Pierce BCA Assay Kit (Cat. #23225), and 20 µg of the sample was loaded into a 4–15% Criterion TGX gel (Bio-Rad, 5678085) and transferred to a nitrocellulose membrane (Life Technologies Cat. #IB23001) using an iBlot 2 (Life Technologies Cat. #IB21001). Proteins were detected using an iBind system (Life Technologies SLF2020). For BTK^T474I and BTK^T474I/C481S we inferred ligand entry into cells via the autoubiquitination and dose-dependent degradation of cIAP1^FL,[58].
# Dose-dependent Degradation was analyzed using ImageJ (NIH, version 1.50i). Densiometric analysis was performed, normalized to DMSO signal, and analyzed using GraphPad Prism (Version 9.0.0 (121)). Non-linear fit one-phase decay analysis was used to obtain DC50 values. When we observed a hook effect, some points were excluded as part of the fit. In Supplementary Fig. 7B the complete curve was fit using GraphPad Prism non-linear regression bell-shaped curve where X is the concentration. However, using this method we were unable to obtain stable values for our DC50. SEM error was plotted for each point. When determining statistically significant differences, we used a two-sided student’s unpaired T-Test.
# T4 sequence (Q06187 whole entry F559A, the tested form may be a part): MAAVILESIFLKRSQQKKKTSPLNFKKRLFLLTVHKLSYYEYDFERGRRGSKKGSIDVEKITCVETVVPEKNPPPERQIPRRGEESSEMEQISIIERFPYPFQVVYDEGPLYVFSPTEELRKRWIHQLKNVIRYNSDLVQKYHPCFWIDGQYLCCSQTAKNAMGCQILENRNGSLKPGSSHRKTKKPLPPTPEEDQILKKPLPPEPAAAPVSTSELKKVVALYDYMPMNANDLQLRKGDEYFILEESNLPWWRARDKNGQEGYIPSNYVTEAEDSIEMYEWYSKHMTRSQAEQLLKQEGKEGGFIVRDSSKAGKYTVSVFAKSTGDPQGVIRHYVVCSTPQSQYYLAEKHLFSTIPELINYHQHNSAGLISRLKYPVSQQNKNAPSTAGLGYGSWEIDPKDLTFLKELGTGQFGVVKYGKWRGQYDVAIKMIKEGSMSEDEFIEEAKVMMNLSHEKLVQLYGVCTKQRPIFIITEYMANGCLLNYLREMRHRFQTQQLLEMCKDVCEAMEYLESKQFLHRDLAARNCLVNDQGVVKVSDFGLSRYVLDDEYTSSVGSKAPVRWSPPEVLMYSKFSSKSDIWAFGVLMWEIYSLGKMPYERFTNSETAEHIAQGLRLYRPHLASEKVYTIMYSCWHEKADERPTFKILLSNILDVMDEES
# T4 sequence (Q13490 whole entry, the tested form may be a part): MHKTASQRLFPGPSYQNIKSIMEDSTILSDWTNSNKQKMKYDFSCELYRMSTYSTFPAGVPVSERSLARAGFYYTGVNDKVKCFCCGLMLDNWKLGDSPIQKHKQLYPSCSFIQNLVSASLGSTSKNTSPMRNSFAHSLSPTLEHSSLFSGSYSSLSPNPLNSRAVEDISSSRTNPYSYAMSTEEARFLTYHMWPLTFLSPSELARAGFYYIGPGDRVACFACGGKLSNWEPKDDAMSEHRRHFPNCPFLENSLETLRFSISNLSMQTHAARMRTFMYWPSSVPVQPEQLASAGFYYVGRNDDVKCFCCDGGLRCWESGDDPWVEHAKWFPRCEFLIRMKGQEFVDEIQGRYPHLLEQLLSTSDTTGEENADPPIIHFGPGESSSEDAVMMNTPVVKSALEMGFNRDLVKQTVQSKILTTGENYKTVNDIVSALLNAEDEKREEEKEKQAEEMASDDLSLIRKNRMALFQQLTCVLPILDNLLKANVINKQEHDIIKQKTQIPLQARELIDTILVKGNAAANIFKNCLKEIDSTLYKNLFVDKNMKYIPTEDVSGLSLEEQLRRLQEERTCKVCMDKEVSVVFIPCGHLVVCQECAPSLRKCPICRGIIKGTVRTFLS
# T1 sequence (Q06187 whole entry, the tested form may be a part): as the sequence (Q06187 whole entry F559A, the tested form may be a part) above, with A559F counted along it
# T1 sequence (Q13490 whole entry, the tested form may be a part): as the sequence (Q13490 whole entry, the tested form may be a part) above
# T3 sequence (Q06187 whole entry C481S, the tested form may be a part): as the sequence (Q06187 whole entry F559A, the tested form may be a part) above, with C481S, A559F counted along it
# T2 sequence (Q06187 whole entry T474I/C481S, the tested form may be a part): as the sequence (Q06187 whole entry F559A, the tested form may be a part) above, with T474I, C481S, A559F counted along it
# T2 sequence (Q13490 whole entry, the tested form may be a part): as the sequence (Q13490 whole entry, the tested form may be a part) above
structure (smiles),measurement,setting,value
CNC(C)C(=O)NC(C(=O)N1CC(NC(=O)COCCN2CCN(CC=CC(=O)N3CCCC(n4nc(-c5ccc(Oc6ccccc6)cc5)c5c(N)ncnc54)C3)CC2)CC1C(=O)NC1CCCc2ccccc21)C1CCCCC1 (centres unmarked) [BCCov],Dmax,[1],~70%
same,degradation of BTK^T474I-C481S,[2],loss of activity
same,covalent adduct formation on BTK^FL-C481S,[3],no similar adduct
same,BTK^FL-F559A blot signal normalized to DMSO,[4]; 0.00976562 uM,1.17 and 1.06 and 0.96
same,BTK^FL-F559A blot signal normalized to DMSO,[4]; 0.0195312 uM,1.16 and 1.04 and 1.13
same,BTK^FL-F559A blot signal normalized to DMSO,[4]; 0.0390625 uM,0.92 and 0.90 and 0.89
same,BTK^FL-F559A blot signal normalized to DMSO,[4]; 0.078125 uM,0.58 (2×) and 0.71
same,BTK^FL-F559A blot signal normalized to DMSO,[4]; 0.15625 uM,0.39 and 0.23 and 0.37
same,BTK^FL-F559A blot signal normalized to DMSO,[4]; 0.3125 uM,0.25 and 0.12 and 0.28
same,BTK^FL-F559A blot signal normalized to DMSO,[4]; 0.625 uM,0.23 and 0.10 and 0.24
same,BTK^FL-F559A blot signal normalized to DMSO,[4]; 1.25 uM,0.22 and 0.0565 and 0.18
same,BTK^FL-F559A blot signal normalized to DMSO,[4]; 2.5 uM,0.23 and 0.05 and 0.19
same,BTK^FL-F559A blot signal normalized to DMSO,[4]; 5 uM,0.18 and 0.08 and 0.22
same,degradation of F559A mutant,[4]; Expi293,retains potent cellular degradation
